# Source: the NIST ThermoML archive (doi:10.1016/j.jct.2009.11.004)
# ± gives the expanded uncertainty stated by the source.
# Legend:
# [1] = refractive index (Na D-line) (dimensionless); conditions: 101.33 kPa, Liquid, Standard Abbe refractometry
# [2] = 101.33 kPa, Liquid; for viscosity: Concentric cylinders viscometry; for mass density: Vibrating tube method
Structure (SMILES),refractive index ([1]; 298.15 K),viscosity ([2]; 298.15 K),mass density ([2]; 298.15 K),refractive index ([1]; 293.15 K),refractive index ([1]; 303.15 K),refractive index ([1]; 308.15 K),refractive index ([1]; 313.15 K),refractive index ([1]; 318.15 K),refractive index ([1]; 323.15 K),refractive index ([1]; 328.15 K),refractive index ([1]; 333.15 K),viscosity ([2]; 293.15 K),mass density ([2]; 293.15 K),viscosity ([2]; 303.15 K),mass density ([2]; 303.15 K),viscosity ([2]; 308.15 K),mass density ([2]; 308.15 K),viscosity ([2]; 313.15 K),mass density ([2]; 313.15 K),viscosity ([2]; 318.15 K),further results
CCCCCC[n+]1ccn(C)c1.O=S(=O)([N-]S(=O)(=O)C(F)(F)F)C(F)(F)F,1.4318 ± 0.00051,68.54 ± 1.6 mPa·s,1370.8 ± 1.8 kg/m3,,,,,,,,,,,,,,,,,,
CCCC[n+]1ccccc1.O=S(=O)([N-]S(=O)(=O)C(F)(F)F)C(F)(F)F [1-butylpyridinium bis[(trifluoromethyl)sulfonyl]imide],1.44379 ± 0.0006,60.41 ± 1.4 mPa·s,1447.6 ± 2 kg/m3,1.44537 ± 0.0006,1.44211 ± 0.0006,1.44057 ± 0.00059,1.43911 ± 0.00058,1.43769 ± 0.00058,1.43631 ± 0.00057,1.43496 ± 0.00057,1.43359 ± 0.00058,76.16 ± 1.8 mPa·s,1452.5 ± 2 kg/m3,48.55 ± 1.1 mPa·s,1442.9 ± 2 kg/m3,39.65 ± 0.9 mPa·s,1438.3 ± 2 kg/m3,32.83 ± 0.74 mPa·s,1433.6 ± 2 kg/m3,27.56 ± 0.62 mPa·s,mass density ([2]; 318.15 K): 1429 ± 2 kg/m3; viscosity ([2]; 323.15 K): 23.4 ± 0.53 mPa·s; mass density ([2]; 323.15 K): 1424.3 ± 2 kg/m3; viscosity ([2]; 328.15 K): 20.08 ± 0.45 mPa·s; mass density ([2]; 328.15 K): 1419.7 ± 1.9 kg/m3; viscosity ([2]; 333.15 K): 17.4 ± 0.39 mPa·s; mass density ([2]; 333.15 K): 1415.1 ± 1.9 kg/m3; viscosity ([2]; 338.15 K): 15.2 ± 0.34 mPa·s; mass density ([2]; 338.15 K): 1410.5 ± 1.9 kg/m3; viscosity ([2]; 343.15 K): 13.39 ± 0.3 mPa·s; mass density ([2]; 343.15 K): 1406 ± 1.9 kg/m3; viscosity ([2]; 348.15 K): 11.87 ± 0.27 mPa·s; mass density ([2]; 348.15 K): 1401.5 ± 1.9 kg/m3; viscosity ([2]; 353.15 K): 10.59 ± 0.24 mPa·s; mass density ([2]; 353.15 K): 1397 ± 1.9 kg/m3
CCCCCCCC[n+]1ccccc1.O=S(=O)([N-]S(=O)(=O)C(F)(F)F)C(F)(F)F [1-octylpyridinium bis((trifluoromethyl)sulfonyl)amide],1.44723 ± 0.00059,114.34 ± 2.8 mPa·s,1326.8 ± 1.8 kg/m3,1.4487 ± 0.00059,1.44568 ± 0.00059,1.44413 ± 0.00059,1.44262 ± 0.00059,1.44115 ± 0.00058,1.43972 ± 0.00058,1.43827 ± 0.00058,1.43681 ± 0.00058,149.53 ± 3.9 mPa·s,1331.3 ± 1.8 kg/m3,88.74 ± 2.1 mPa·s,1322.5 ± 1.7 kg/m3,70.13 ± 1.6 mPa·s,1318.2 ± 1.7 kg/m3,56.33 ± 1.3 mPa·s,1313.9 ± 1.7 kg/m3,45.9 ± 1 mPa·s,mass density ([2]; 318.15 K): 1309.6 ± 1.7 kg/m3; viscosity ([2]; 323.15 K): 37.91 ± 0.86 mPa·s; mass density ([2]; 323.15 K): 1305.3 ± 1.7 kg/m3; viscosity ([2]; 328.15 K): 31.7 ± 0.72 mPa·s; mass density ([2]; 328.15 K): 1301.1 ± 1.7 kg/m3; viscosity ([2]; 333.15 K): 26.8 ± 0.61 mPa·s; mass density ([2]; 333.15 K): 1296.8 ± 1.7 kg/m3; viscosity ([2]; 338.15 K): 22.89 ± 0.52 mPa·s; mass density ([2]; 338.15 K): 1292.6 ± 1.7 kg/m3; viscosity ([2]; 343.15 K): 19.73 ± 0.45 mPa·s; mass density ([2]; 343.15 K): 1288.3 ± 1.7 kg/m3; viscosity ([2]; 348.15 K): 17.15 ± 0.39 mPa·s; mass density ([2]; 348.15 K): 1284.1 ± 1.7 kg/m3; viscosity ([2]; 353.15 K): 15.02 ± 0.34 mPa·s; mass density ([2]; 353.15 K): 1279.9 ± 1.7 kg/m3
CCCCCCCCCC[n+]1ccccc1.O=S(=O)([N-]S(=O)(=O)C(F)(F)F)C(F)(F)F [1-decylpyridinium bis(trifluoromethylsulfonyl)imide],1.44859 ± 0.00059,151.93 ± 4 mPa·s,1283.5 ± 1.7 kg/m3,1.45007 ± 0.00059,1.44703 ± 0.00059,1.44546 ± 0.00059,1.44391 ± 0.00059,1.44239 ± 0.00059,1.44091 ± 0.00059,1.43943 ± 0.00059,1.43796 ± 0.00059,201.44 ± 5.7 mPa·s,1287.8 ± 1.7 kg/m3,116.39 ± 2.9 mPa·s,1279.2 ± 1.7 kg/m3,90.82 ± 2.1 mPa·s,1275.1 ± 1.7 kg/m3,72.07 ± 1.6 mPa·s,1270.9 ± 1.7 kg/m3,58.06 ± 1.3 mPa·s,mass density ([2]; 318.15 K): 1266.8 ± 1.6 kg/m3; viscosity ([2]; 323.15 K): 47.46 ± 1.1 mPa·s; mass density ([2]; 323.15 K): 1262.6 ± 1.6 kg/m3; viscosity ([2]; 328.15 K): 39.29 ± 0.89 mPa·s; mass density ([2]; 328.15 K): 1258.5 ± 1.6 kg/m3; viscosity ([2]; 333.15 K): 32.91 ± 0.74 mPa·s; mass density ([2]; 333.15 K): 1254.3 ± 1.6 kg/m3; viscosity ([2]; 338.15 K): 27.86 ± 0.63 mPa·s; mass density ([2]; 338.15 K): 1250.2 ± 1.6 kg/m3; viscosity ([2]; 343.15 K): 23.81 ± 0.54 mPa·s; mass density ([2]; 343.15 K): 1246.1 ± 1.6 kg/m3; viscosity ([2]; 348.15 K): 20.54 ± 0.46 mPa·s; mass density ([2]; 348.15 K): 1242 ± 1.6 kg/m3; viscosity ([2]; 353.15 K): 17.85 ± 0.4 mPa·s; mass density ([2]; 353.15 K): 1237.9 ± 1.6 kg/m3
CCCCCCCCCCCC[n+]1ccccc1.O=S(=O)([N-]S(=O)(=O)C(F)(F)F)C(F)(F)F [1-dodecylpyridinium bis(trifluoromethylsulfonyl)imide],1.44969 ± 0.00059,200.45 ± 5.7 mPa·s,1248.8 ± 1.6 kg/m3,1.45131 ± 0.0006,1.44818 ± 0.00059,1.44668 ± 0.00059,1.44524 ± 0.00058,1.44379 ± 0.00058,1.44235 ± 0.00058,1.4409 ± 0.00058,1.43946 ± 0.00058,269.72 ± 8.3 mPa·s,1253.1 ± 1.6 kg/m3,151.42 ± 4 mPa·s,1244.6 ± 1.6 kg/m3,116.63 ± 2.9 mPa·s,1240.5 ± 1.6 kg/m3,91.45 ± 2.2 mPa·s,1236.4 ± 1.6 kg/m3,72.83 ± 1.7 mPa·s,mass density ([2]; 318.15 K): 1232.3 ± 1.6 kg/m3; viscosity ([2]; 323.15 K): 58.88 ± 1.3 mPa·s; mass density ([2]; 323.15 K): 1228.2 ± 1.6 kg/m3; viscosity ([2]; 328.15 K): 48.25 ± 1.1 mPa·s; mass density ([2]; 328.15 K): 1224.1 ± 1.6 kg/m3; viscosity ([2]; 333.15 K): 40.02 ± 0.9 mPa·s; mass density ([2]; 333.15 K): 1220.1 ± 1.6 kg/m3; viscosity ([2]; 338.15 K): 33.59 ± 0.76 mPa·s; mass density ([2]; 338.15 K): 1216 ± 1.6 kg/m3; viscosity ([2]; 343.15 K): 28.47 ± 0.64 mPa·s; mass density ([2]; 343.15 K): 1212 ± 1.6 kg/m3; viscosity ([2]; 348.15 K): 24.36 ± 0.55 mPa·s; mass density ([2]; 348.15 K): 1208 ± 1.5 kg/m3; viscosity ([2]; 353.15 K): 21.03 ± 0.48 mPa·s; mass density ([2]; 353.15 K): 1204 ± 1.5 kg/m3
